This is an account of results in patent US20200368198A1, “METHODS FOR INCREASING FERTILITY” (NEWSOUTH INNOVATIONS PTY LIMITED, priority 2017, published 2020).

“And” between values parts separate entries of the source, which are not always exact repeats. Equal values may be shown once.

Series [1] deals with C57BL6 female mice. Nature of the series: Cumulus oocyte complex yield after PMSG superovulation, doxorubicin with or without NMN. The class given is in vivo. The note with it: per mouse, single dose doxorubicin 10 mg/kg i.p. and/or NMN 2 g/L drinking water, 2 months post doxorubicin. How it is done:
To assess oocyte yield, and mice were hormonally stimulated to superovulated by intraperitoneal injection with 7.5 IU/mL of Pregnant Mare's Serum Gonadotropin (PMSG) (Folligon; Intervet, Boxmeer, Holland) to stimulate follicular growth. After 44-46 hours, ovaries were collected in HEPES-buffered minimum essential medium (aMEM; […] Sigma Aldrich, St. Louis, Mo.) and 100 μM IBMX (Sigma Aldrich). […] NMN was delivered through addition to drinking water at 2 g/L, for a final dose of approximately 165 mg/kg. Administration of NMN began one day prior to doxorubicin administration. […] Ovaries were then punctured to release MI oocytes. In a separate cohort of animals, the same experiment was repeated using animals treated with the platinum based chemotherapy drug cisplatin. In FIG. 6 and Table 1, numbers of cumulus oocyte complexes are listed.

Series [2] concerns C57BL6 female mice. Nature of the series: Mating trial after doxorubicin with or without NMN co-treatment. The class given is in vivo. As to conditions: for Number of mating rounds required to achieve pregnancy: the values are: cumulative % of females pregnant by round. How it is done: Following oocyte counting and analysis of oocyte meiotic progression, as well as a separate cohort of animals for histological ovarian analysis, a separate cohort of animals were treated as indicated, and mated with stud males of proven track record, to assess the ability of animals to deliver live births following chemotherapy treatment in the presence of absence of NMN co-treatment.

Series [3] has as its system C57BL6 females. Nature of the series: Reversal design: primordial follicle counts in ovarian histology sections. The class given is in vivo, mice. As to conditions: doxorubicin 10 mg/kg i.p., NMN in drinking water started four weeks later for 4 weeks; per mouse. The source says:
Ovaries were dissected from freshly euthanased animals, and preserved in 10% neutral buffered formalin for 24 hr, followed by 70% ethanol, until embedding in paraffin blocks. Blocks were sectioned on a microtome and subjected to haematoxylin and eosin (H&E) staining. Primordial follicles were manually counted by a blinded investigator.
Next, we decided to investigate whether NMN treatment delivered some time following chemotherapy treatment could actively reverse chemotherapy induced infertility. […] Four weeks later, they received NMN in their drinking water, for another 4 weeks, prior to being euthanased for either oocyte studies or ovarian histological analysis. The rationale of this experimental design is to investigate whether NMN has the ability to induce regeneration of the ovary. According to the standard dogma of reproductive biology, mammals are born with a set number of follicles which are slowly released as oocytes over the course of a lifetime, with the ovaries incapable of regenerating new follicles.

The subject of series [4] is oocytes. The series can be described thus: Meiotic progression (GVBD, PBE) of harvested oocytes, doxorubicin with or without NMN. The class given is in vivo, mice. As to conditions: doxorubicin and/or NMN. An excerpt:
Once harvested from ovaries, oocytes were stored in IBMX media to prevent progression into meiosis.

The subject of series [5] is wild-type and NMNAT1-Tg female mice. Nature of the series: Oocyte yield following doxorubicin in wild-type or NMNAT1-Tg mice. The class given is in vivo. The note with it: 10 mg/kg i.p., two months later, PMSG, per mouse. How it is done:
As in Example 2, 7 week-old female wild-type (“WT”) control or their littermates overexpressing NMNAT1 (“NMNAT1-Tg”) were treated with doxorubicin (10 mg/kg, i.p. injection). […] Two months later, animals were super-ovulated with PMSG, euthanased, and ovaries punctured to release MI oocytes, which were counted (FIG. 18 and Table 9).

The target of series [6] is NAMPT (Homo sapiens, UniProt P43490). The note with it: in vitro; cited from earlier work.
NAMPT, sequence (P43490 whole entry, species assumed): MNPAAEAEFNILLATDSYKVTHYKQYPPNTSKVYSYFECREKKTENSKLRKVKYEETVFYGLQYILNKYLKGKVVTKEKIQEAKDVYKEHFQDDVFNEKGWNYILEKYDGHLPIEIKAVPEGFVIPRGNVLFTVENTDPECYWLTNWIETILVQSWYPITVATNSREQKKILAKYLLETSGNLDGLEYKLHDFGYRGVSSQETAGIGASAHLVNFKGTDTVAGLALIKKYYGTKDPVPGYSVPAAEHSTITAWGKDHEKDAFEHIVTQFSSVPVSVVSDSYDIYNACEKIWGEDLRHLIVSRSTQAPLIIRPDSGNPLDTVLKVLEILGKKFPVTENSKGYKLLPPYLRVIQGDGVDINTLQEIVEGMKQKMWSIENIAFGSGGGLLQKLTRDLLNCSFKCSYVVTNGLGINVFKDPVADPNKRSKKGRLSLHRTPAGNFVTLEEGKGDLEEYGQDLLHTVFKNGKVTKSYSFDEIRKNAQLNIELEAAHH
The target in series [7] is T1, CD38 (Homo sapiens, UniProt P28907).
T1 sequence (P28907 1-300): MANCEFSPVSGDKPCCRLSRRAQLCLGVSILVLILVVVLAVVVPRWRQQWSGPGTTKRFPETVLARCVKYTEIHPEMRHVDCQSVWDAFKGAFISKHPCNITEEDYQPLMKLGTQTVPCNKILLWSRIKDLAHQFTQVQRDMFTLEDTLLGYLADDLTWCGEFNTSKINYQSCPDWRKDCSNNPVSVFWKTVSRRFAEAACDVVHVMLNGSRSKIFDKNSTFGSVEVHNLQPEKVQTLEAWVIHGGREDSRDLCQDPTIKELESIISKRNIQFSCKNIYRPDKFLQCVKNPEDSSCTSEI
As to conditions: in vitro; cited from earlier work.

Series [8] has as its target NADH:quinone oxidoreductase (NQ01) (Homo sapiens, UniProt P15559). The note with it: cited from earlier work.
In series [9] the test system is oocytes. Nature of the series: Meiotic progression (GVBD, PBE) of harvested oocytes, cisplatin with or without NMN. The note with it: cisplatin and/or NMN. The class given is in vivo, mice. How it is done: Once harvested from ovaries, oocytes were stored in IBMX media to prevent progression into meiosis. Once released from IBMX, meiotic progression was assessed by the proportions of oocytes achieving germinal vesicle breakdown (GVBD) for meiosis I, and polar body extrusion (PBE) for meiosis II, with results shown in FIGS. 7 and 8 and Tables 2 and 3.
Again, as in Example 2 above, the oocytes which were harvested from these studies were allowed to progress down meiosis, in order to assess meiotic progression rates (FIGS. 16 and 17 and Table 7 and 8).

The test system of series [10] is C57BL6 female mice. Nature of the series: Cumulus oocyte complex yield after PMSG, cisplatin with or without NMN. The class given is in vivo. As to conditions: per mouse, single dose cisplatin 5 mg/kg i.p. and/or NMN 2 g/L drinking water, two months later. How it is done:
To assess oocyte yield, and mice were hormonally stimulated to superovulated by intraperitoneal injection with 7.5 IU/mL of Pregnant Mare's Serum Gonadotropin (PMSG) (Folligon; Intervet, Boxmeer, Holland) to stimulate follicular growth. After 44-46 hours, ovaries were collected in HEPES-buffered minimum essential medium (aMEM; Gibco Life Technologies, Grand Island, N.Y.) supplemented with 50 µM of 3-isobuty-1-methylxanthine (IBMX) (Sigma aldrich, NSW, AU) (M2 medium) to maintain meitotic arrest at germinal vesicle stage. Cumulus oocyte complexes (COCs) were isolated from preovulatory follicles using a 27-gauge needle and collected using flame-pulled borosilicate Pasteur pipettes in M2 medium supplemented with 3 mg/ml bovine serum albumin (BSA; Sigma Aldrich, St. Louis, Mo.) and 100 μM IBMX (Sigma Aldrich). Cumulus oocyte complexes (COCs) were mechanically denuded of cumulus cells by pipetting, and the denuded oocytes were transferred to another dish containing a drop of fresh M2-medium plus IBMX on heat block with 37° C. with lid to protect oocytes from light. […]

Series [11] concerns C57BL6 females. The series can be described thus: Reversal design: oocyte yield, cisplatin followed by NMN 4 weeks later. As to conditions: cisplatin 5 mg/kg i.p., per mouse. The class given is in vivo, mice. How it is done: To assess oocyte yield, and mice were hormonally stimulated to superovulated by intraperitoneal injection with 7.5 IU/mL of Pregnant Mare's Serum Gonadotropin (PMSG) (Folligon; Intervet, Boxmeer, Holland) to stimulate follicular growth. After 44-46 hours, ovaries were collected in HEPES-buffered minimum essential medium (aMEM; Gibco Life Technologies, Grand Island, N.Y.) supplemented with 50 µM of 3-isobuty-1-methylxanthine (IBMX) (Sigma aldrich, NSW, AU) (M2 medium) to maintain meitotic arrest at germinal vesicle stage. Cumulus oocyte complexes (COCs) were isolated from preovulatory follicles using a 27-gauge needle and collected using flame-pulled borosilicate Pasteur pipettes in M2 medium supplemented with 3 mg/ml bovine serum albumin (BSA; Sigma Aldrich, St. Louis, Mo.) and 100 μM IBMX (Sigma Aldrich). Cumulus oocyte complexes (COCs) were mechanically denuded of cumulus cells by pipetting, and the denuded oocytes were transferred to another dish containing a drop of fresh M2-medium plus IBMX on heat block with 37° C. with lid to protect oocytes from light.
Next, we decided to investigate whether NMN treatment delivered some time following chemotherapy treatment could actively reverse chemotherapy induced infertility. […]

NADH:quinone oxidoreductase (NQ01), sequence (P15559 whole entry): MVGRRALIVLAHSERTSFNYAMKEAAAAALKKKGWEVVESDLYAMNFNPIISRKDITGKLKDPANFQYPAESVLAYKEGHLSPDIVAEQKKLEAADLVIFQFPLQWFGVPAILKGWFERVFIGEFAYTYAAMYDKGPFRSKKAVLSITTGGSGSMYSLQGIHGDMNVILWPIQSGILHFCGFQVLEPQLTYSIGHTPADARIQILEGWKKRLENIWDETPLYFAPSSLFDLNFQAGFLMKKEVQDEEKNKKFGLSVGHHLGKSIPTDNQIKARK

`COc1cccc2c1C(=O)c1c(O)c3c(c(O)c1C2=O)C[C@@](O)(C(=O)CO)C[C@@H]3O[C@H]1C[C@H](N)[C@H](O)[C@H](C)O1` [Dox, doxorubicin]: the “Numbers of cumulus oocyte complexes released from mice” value in [1] is 1 and 8 and 9 and 3 and 6 and 7 and 5. Further, the Number of mating rounds required to achieve pregnancy in series [2] (Round 0) turned out to be 0%; in series [2] (Round 1) it was 60%; in series [2] (Round 2), 90%; in [2] (Round 3), 90%. In addition, the “Number of live pups born per litter” value in [2] (per litter, female C57BL6 mice treated with doxorubicin and/or NMN, mated) is listed as “strong reduction”. For the same compound, the “Primordial follicle numbers in ovarian histology sections” value in series [3] is 34 and 50 and 49 and 41. Also, the “Proportion of harvested oocytes achieving germinal vesicle breakdown” value is given as 19 % of total in series [4] (1 h after release from IBMX) and 92 % of total in series [4] (2 h after release from IBMX). Besides, the figures for the “Proportions of oocytes achieving polar body extrusion” value in [4] (14 hr following GVBD), in [4] (16 hr following GVBD) and in series [4] (20 hr following GVBD) were 21, 52 and 81, respectively. The “Oocyte yield following doxorubicin treatment” value in series [5] (NMNAT1-Tg mice) is 13 (2×) and 12 and 11 and 15 and 10 (2×) and 18; in series [5] (wild-type mice) it was 1 (2×) and 4 (2×) and 2 and 7 and 9 (2×) and 3.

Turning to `OC(CNc1ccccc1)Cn1c2ccc(Br)cc2c2cc(Br)ccc21` (stereo not shown) [P7C3], in series [6], the “Effect on NAMPT activity” value was “enhances activity of NAMPT in vitro”.

Take `O=c1cc(-c2ccc(O)cc2)oc2cc(O)cc(O)c12` [apigenin, 5,7-dihydroxy-2-(4-hydroxyphenyl)-4H-1-benzopyran-4-one]: the “Inhibition of CD38 activity” value in series [7] is “inhibitors of CD38 activity in vitro”.

On to `O=c1c(O)c(-c2ccc(O)c(O)c2)oc2cc(O)cc(O)c12` [quercetin, 2-(3,4-dihydroxyphenyl)-3,5,7-trihydroxy-4H-chromen-4-one], for which the “Inhibition of CD38 activity” value in series [7] is “inhibitors of CD38 activity in vitro”.

On to `CC1(C)CCC2=C(O1)c1ccccc1C(=O)C2=O` [β-lapachone, 3,4-dihydro-2,2-dimethyl-2H-napthol[1,2-b]pyran-5,6-dione], for which the “Effect on NQ01” value in series [8] is on record as “activates the enzyme NADH:quinone oxidoreductase (NQ01)”.

Take `N.N.[Cl][Pt][Cl]` [cisplatin]: the “Proportion of harvested oocytes achieving germinal vesicle breakdown” value was 43 % of total in series [9] (1 h after release from IBMX) and 100 % of total in series [9] (2 h after release from IBMX). Further, the “Proportion of harvested oocytes achieving polar body extrusion” value in series [9] (14 hr following completion of GVBD) was 40 % of total; in series [9] (16 hr following completion of GVBD), 70 % of total; in series [9] (20 hr following completion of GVBD) it was 85 % of total. Moreover, the “Numbers of cumulus oocyte complexes released from mice” value in [10] was “reduces oocyte yield and 10 and 5 and 6 and 0 and 4 and 9”. Moreover, in series [11], the Oocyte yield is 6 and 5 (2×) and 2 and 4.
